PubChem BioAssay AID1919016 (Molecular Pharmacology Branch, DTP, NCI, 2023)

System: NCI-H196 complex spheroid growth, percent test/control
Test: Anticancer human tumor NCI-H196 cell line growth inhibition [AhR];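 also: seven days of drug exposure starting three days after plating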;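 as to viability, T/C: 100% = DMSO vehicle control wells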
Conditions: for IC50: curve of first compound; for viability, T/C: stronger effect = lower value
From the text: Multicellular complex tumor spheroid response to aryl hydrocarbon receptor antagonists in combination with a variety of drugs and investigational agents in selected tumor cell lines
The current study was undertaken to assess response to aryl hydrocarbon receptor antagonists in combination with standard-of-care drugs and investigational agents in solid tumor complex spheroid models. Complex spheroids include a stromal component modeled by human endothelial cells (HUVEC) and fibroblasts modeled by human mesenchymal stem cells (MSCs). The concentration ranges selected for each drug and investigational agent were based upon clinically achievable concentrations if the clinical Cmax of the agent was known.
Compounds. The drugs and investigational agents: BAY 2416964 (NSC825713), GNF351 (NSC835774), CH-223191 (NSC835775), CPI-455 (NSC825282), aza-TdCyd (NSC777586), decitabine (NSC127716), belinostat (NSC758774), entinostat (NSC756642), pevonedistat (NSC761192), tazemetostat (NSC777109), talazoparib (NSC765396), olaparib (NSC753686), selinexor (NSC780203), nedisertib (M3814, NSC802822), bortezomib (NSC756655), venetoclax (NSC766270), doxorubicin (NSC123127), elimusertib (BAY189344, NSC800525), ceralasertib (AZD6738, NSC777638), TAK-243 (NSC785004), alisertib (NSC759677), etoposide (NSC141540), topotecan (NSC609699), eribulin (NSC707389), gemcitabine (NSC613327), carboplatin (NSC241240), cisplatin (NSC119875), and SN-38 (NSC673596) were obtained from the National Cancer Institute (NCI) Developmental Therapeutics Program Chemical Repository (32). The FDA-approved anticancer drug set is available from the Developmental Therapeutics Program at https://dtp.cancer.gov/organization/dscb/obtaining/available plates.htm. […] The stock solutions were prepared in dimethyl sulfoxide (DMSO, Sigma-Aldrich, St. Louis, MO, cat. D2650), except for the platinum compounds which were prepared in saline (Quality Biological, Gaithersburg, MD, cat. 114-055-101), at 800-fold the tested concentration and stored at -70 degrees C prior to their use. All drugs and investigational agents were tested over a range starting from a high concentration at or near the clinical Cmax and decreasing in half-log increments. If the clinical Cmax for an agent had not been determined, the highest concentration tested was 10 microM (Table 1).
Cell Culture. All cells were maintained in an incubator at 37 degrees C and 5% CO2 with 95% humidity. The PDC lines were cultured according to standard operating procedures established by the NCI PDMR (https://pdmr.cancer.gov). Briefly, all PDCs were thawed and cultured in Matrigel-coated flasks prepared with a working solution of 1X Ham's F-12 nutrient mix, without supplementation (Invitrogen, Waltham, MA, cat. 11765054), 100 U/mL penicillin-streptomycin (Invitrogen, cat. 15140122), and 2.5% Matrigel (Corning Inc., Corning, NY, cat. 354248) for the first three passages. All PDCs were cultured in complete DMEM/F-12 media containing advanced DMEM/F-12 (Invitrogen, cat. 12634028), 4.9% defined fetal bovine serum, heat inactivated (HyClone Laboratories Inc., Logan, UT, cat. SH30070.03HI), 389 ng/mL hydrocortisone (Sigma-Aldrich, cat. H4001), 9.7 ng/mL human EGF recombinant protein (Invitrogen, cat. PHG0313), 23.4 microg/mL adenine (Sigma-Aldrich, cat. A2786), 97.3 U/mL penicillin-streptomycin (Invitrogen, cat. 15140122), 1.9 mM L-glutamine (Invitrogen, cat. 25030081), and 9.7 microM Y-27632 dihydrochloride (Tocris Bioscience, Bristol, United Kingdom, cat. 1254). The PDCs were cultured in complete DMEM/F12 media without 10 microM Y-27632 dihydrochloride for at least two passages prior to the screen. The established cell lines NCI-H1341 and […] were cultured in DMEM/F-12, HEPES (Invitrogen, cat. 11330032), 5% defined fetal bovine serum (HyClone Laboratories Inc., cat. SH30070.03), ITS premix universal culture supplement [insulin (5 microg/mL), transferrin (5 microg/mL), and selenious acid (5 ng/mL)] […]

[1] = second compound 0.1 µM, first compound 0.0316 µM
[2] = second compound 0.1 µM, first compound 0.1 µM
[3] = second compound 0.1 µM, first compound 0.316 µM
[4] = second compound 0.1 µM, first compound 1 µM
[5] = second compound 0.316 µM, first compound 0.0316 µM
[6] = second compound 0.316 µM, first compound 0.1 µM
[7] = second compound 0.316 µM, first compound 0.316 µM
[8] = second compound 0.316 µM, first compound 1 µM
[9] = second compound 1 µM, first compound 0.0316 µM
[10] = second compound 1 µM, first compound 0.1 µM
[11] = second compound 1 µM, first compound 0.316 µM
[12] = second compound 1 µM, first compound 1 µM
[13] = second compound 3.16 µM, first compound 0.0316 µM
[14] = second compound 3.16 µM, first compound 0.1 µM
[15] = second compound 3.16 µM, first compound 0.316 µM
[16] = second compound 3.16 µM, first compound 1 µM
[17] = second compound 10 µM, first compound 0.0316 µM
[18] = second compound 10 µM, first compound 0.1 µM
[19] = second compound 10 µM, first compound 0.316 µM
[20] = second compound 10 µM, first compound 1 µM

| Compound | IC50 (second compound 0.1 µM) | IC50 (second compound 0.316 µM) | IC50 (second compound 1 µM) | IC50 (second compound 3.16 µM) | IC50 (second compound 10 µM) | viability, T/C [1] | viability, T/C [2] | viability, T/C [3] | viability, T/C [4] | viability, T/C [5] | viability, T/C [6] | viability, T/C [7] | viability, T/C [8] | viability, T/C [9] | viability, T/C [10] | viability, T/C [11] | viability, T/C [12] | viability, T/C [13] | viability, T/C [14] | viability, T/C [15] | further results |
| --- | --- | --- | --- | --- | --- | --- | --- | --- | --- | --- | --- | --- | --- | --- | --- | --- | --- | --- | --- | --- | --- |
| COc1cccc2c1C(=O)c1c(O)c3c(c(O)c1C2=O)CC(O)(C(=O)CO)CC3OC1CC(N)C(O)C(C)O1 (stereo not given) + CC(CO)NC(=O)c1cc(-c2ccc(Cl)cc2)nn(-c2cnn(C)c2)c1=O | 0.943 µM | 1.08 µM | 0.967 µM | 0.895 µM | 0.732 µM | 109% | 105% | 85.6% | 52.8% | 102% | 116% | 100% | 53.8% | 110% | 116% | 101% | 49.6% | 113% | 110% | 104% | viability, T/C (second compound 0.1 µM, first compound 3.16 µM): 1.78%; viability, T/C (second compound 0.1 µM, first compound 10 µM): 0.87%; viability, T/C (second compound 0.316 µM, first compound 3.16 µM): 1.55%; viability, T/C (second compound 0.316 µM, first compound 10 µM): 1.77%; viability, T/C (second compound 1 µM, first compound 3.16 µM): 1.06%; viability, T/C (second compound 1 µM, first compound 10 µM): 2.36%; viability, T/C [16]: 44.4%; viability, T/C (second compound 3.16 µM, first compound 3.16 µM): 0.77%; viability, T/C (second compound 3.16 µM, first compound 10 µM): 1.04%; viability, T/C [17]: 119%; viability, T/C [18]: 122%; viability, T/C [19]: 89.9%; viability, T/C [20]: 36.6%; viability, T/C (second compound 10 µM, first compound 3.16 µM): 0.56%; viability, T/C (second compound 10 µM, first compound 10 µM): 2.67% |
| Nc1ncn(C2CC(O)C(CO)O2)c(=O)n1 (stereo not given) + CC(CO)NC(=O)c1cc(-c2ccc(Cl)cc2)nn(-c2cnn(C)c2)c1=O | > 1 µM | > 1 µM | > 1 µM | > 1 µM | > 1 µM | 105% | 106% | 120% | 126% | 114% | 107% | 114% | 120% | 128% | 108% | 110% | 115% | 120% | 104% | 121% | viability, T/C (second compound 0.1 µM, first compound 0.00316 µM): 112%; viability, T/C (second compound 0.1 µM, first compound 0.01 µM): 117%; viability, T/C (second compound 0.316 µM, first compound 0.00316 µM): 107%; viability, T/C (second compound 0.316 µM, first compound 0.01 µM): 116%; viability, T/C (second compound 1 µM, first compound 0.00316 µM): 120%; viability, T/C (second compound 1 µM, first compound 0.01 µM): 118%; viability, T/C (second compound 3.16 µM, first compound 0.00316 µM): 126%; viability, T/C (second compound 3.16 µM, first compound 0.01 µM): 130%; viability, T/C [16]: 115%; viability, T/C (second compound 10 µM, first compound 0.00316 µM): 141%; viability, T/C (second compound 10 µM, first compound 0.01 µM): 119%; viability, T/C [17]: 137%; viability, T/C [18]: 114%; viability, T/C [19]: 133%; viability, T/C [20]: 116% |
